This is an account of results in publication PMC4750701, “Role of Mitochondrial RNA Polymerase in the Toxicity of Nucleotide Inhibitors of Hepatitis C Virus” (Antimicrobial Agents and Chemotherapy, 2016).

In general, IC50 refers to the midpoint of a concentration-inhibition curve. For orientation: CC50 means the concentration at which the toxic effect on the cells reaches its halfway point.

Series [1] addresses T1, Recombinant human DNA polymerase gamma (Homo sapiens, UniProt P54098).
T1 construct: made in house; host or cells: insect cells
T1 sequence (P54098 1-1239): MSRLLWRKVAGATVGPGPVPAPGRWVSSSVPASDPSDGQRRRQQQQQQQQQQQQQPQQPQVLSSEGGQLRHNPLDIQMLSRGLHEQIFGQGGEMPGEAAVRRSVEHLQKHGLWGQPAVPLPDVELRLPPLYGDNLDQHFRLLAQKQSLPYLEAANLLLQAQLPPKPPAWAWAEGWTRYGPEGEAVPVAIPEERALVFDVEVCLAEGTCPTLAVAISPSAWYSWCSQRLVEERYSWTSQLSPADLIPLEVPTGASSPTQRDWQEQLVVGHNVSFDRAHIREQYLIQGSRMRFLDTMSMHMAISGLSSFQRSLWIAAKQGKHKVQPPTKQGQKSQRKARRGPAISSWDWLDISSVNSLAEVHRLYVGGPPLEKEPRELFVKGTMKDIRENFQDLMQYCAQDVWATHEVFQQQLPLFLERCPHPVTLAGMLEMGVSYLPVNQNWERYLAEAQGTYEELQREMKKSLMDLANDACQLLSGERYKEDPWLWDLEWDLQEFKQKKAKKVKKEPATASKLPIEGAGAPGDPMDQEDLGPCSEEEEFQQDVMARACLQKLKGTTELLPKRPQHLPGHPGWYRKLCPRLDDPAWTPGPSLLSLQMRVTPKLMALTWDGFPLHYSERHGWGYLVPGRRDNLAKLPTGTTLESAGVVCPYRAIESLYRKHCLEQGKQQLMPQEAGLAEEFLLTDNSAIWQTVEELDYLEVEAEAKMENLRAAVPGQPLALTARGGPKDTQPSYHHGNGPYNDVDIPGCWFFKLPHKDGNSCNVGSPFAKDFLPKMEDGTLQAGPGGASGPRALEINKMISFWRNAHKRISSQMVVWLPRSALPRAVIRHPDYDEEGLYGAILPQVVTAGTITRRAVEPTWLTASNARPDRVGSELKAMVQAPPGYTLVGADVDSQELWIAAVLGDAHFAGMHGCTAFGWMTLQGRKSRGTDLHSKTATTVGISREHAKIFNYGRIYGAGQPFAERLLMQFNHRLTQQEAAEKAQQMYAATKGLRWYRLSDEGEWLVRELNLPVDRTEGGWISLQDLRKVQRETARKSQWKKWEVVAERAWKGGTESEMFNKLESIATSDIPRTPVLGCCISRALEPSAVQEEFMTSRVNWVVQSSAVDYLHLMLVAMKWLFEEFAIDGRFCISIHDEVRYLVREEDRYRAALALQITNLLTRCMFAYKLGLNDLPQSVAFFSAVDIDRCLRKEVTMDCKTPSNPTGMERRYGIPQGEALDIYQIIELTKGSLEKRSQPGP
T1 sequence (Q9UHN1 26-485 partner limits assumed): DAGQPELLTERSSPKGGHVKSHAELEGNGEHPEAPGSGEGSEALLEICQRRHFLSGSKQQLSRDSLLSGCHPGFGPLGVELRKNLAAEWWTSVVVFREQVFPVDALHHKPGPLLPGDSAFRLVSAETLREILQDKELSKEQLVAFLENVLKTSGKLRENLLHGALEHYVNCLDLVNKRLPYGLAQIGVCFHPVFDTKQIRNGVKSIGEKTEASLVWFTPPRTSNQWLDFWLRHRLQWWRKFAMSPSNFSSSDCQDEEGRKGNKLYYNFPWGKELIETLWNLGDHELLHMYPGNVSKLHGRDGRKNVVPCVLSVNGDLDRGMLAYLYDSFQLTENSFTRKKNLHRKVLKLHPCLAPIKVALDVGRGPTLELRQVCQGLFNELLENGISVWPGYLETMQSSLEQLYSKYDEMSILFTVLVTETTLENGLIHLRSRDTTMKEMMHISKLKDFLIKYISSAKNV
Put plainly: Inhibition of human DNA polymerase gamma. In kind it is biochemical. As to conditions: triphosphate form of the compound tested; read-out: Mean IC50 ± SD for DNA Pol γ. The text has this:
Activated fish sperm DNA was purchased from USB/Affymetrix (Santa Clara, CA) and used as a template for the DNA polymerases alpha, beta, and gamma. The DNA template used in the RNA Pol II assay was a 1,188-bp restriction fragment containing the cytomegalovirus (CMV) immediate early promoter (Promega, Madison, WI). The RNA and DNA oligonucleotides used in the mitochondrial RNA polymerase assay (see Table S1 in the supplemental material) were synthesized and PAGE purified by Thermo Scientific/Dharmacon (Lafayette, CO). RNA primer R12 was 5′-^32P-phosphorylated with [γ-^32P]ATP (3,000 Ci/mmol) and T4 kinase (New England BioLabs, Ipswich, MA).
Human DNA polymerase alpha, isolated from HeLa cell extracts, was from CHIMERx (Madison, WI). Recombinant human DNA polymerase beta, expressed in E. coli, was a gift from Zucai Suo at The Ohio State University. Recombinant human DNA polymerase gamma (including both the large subunit and the small subunit) was cloned, expressed, and purified from insect cells by Gilead Sciences (Foster City, CA) ([13]). RNA PolII was purchased as part of the HeLaScribe nuclear extract in vitro transcription system kit from Promega (Madison, WI). The recombinant human PolRMT and the transcription factors mitochondrial transcription factor A (mtTFA) and B2 (mtTFB2) were purchased from Enzymax (Lexington, KY). FLAG epitope-tagged RNA PolI and PolIII complexes were isolated from rat NSN1 cells and HeLa cells, respectively ([17], [18]). The inhibition of DNA polymerases alpha, beta, and gamma, PolRMT, and PolII and the rate of single-nucleotide incorporation by PolRMT have been described previously in detail ([12], [13], [19]). Inhibition of RNA PolI and PolIII was studied using published methods ([20], [21]). All concentrations were final unless noted otherwise. For the RNA PolI inhibition assay, a reaction mixture containing 50 mM HEPES (pH 7.9), 20% glycerol, 100 mM KCl, 1 mM dithiothreitol (DTT), 50 μg/ml calf thymus DNA, 4 mM MgCl2, 5 or 80 μM UTP (0.25 μl of [5,6-^3H]UTP, >25 Ci/mmol; PerkinElmer), 1 mM noncompeting NTP, competing NTP (5 μM for GTP, CTP, and UTP and 25 μM for ATP), and various concentrations (0 to 500 μM) of NTP analogs was preincubated at 30°C for 5 min. […] After incubation at 30°C for 20 min to 1 h, the reactions were terminated by pipetting the mixtures onto DEAE-cellulose discs (DE81; Whatman), and the products analyzed as described previously ([20], [21]).

The subject of series [2] is mitochondrial DNA-encoded cytochrome c oxidase (COX-1; complex IV) protein level. Put plainly: Mitochondrial protein synthesis assay (COX-1, MitoBiogenesis in-cell ELISA) in PC-3 cells. Format: cell-based, human. As to conditions: human; PC-3 cells, COX-1, 5 days; read-out: Mean CC50 ± SD causing Mitochondrial toxicity: Protein synthesis. An outline of the steps:
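PC-3 cells were exposed to compound for 5 days. Protein levels of nuclear-encoded SDH-A and mitochondrial-encoded COX-1 were then quantified by in-cell ELISA (quantitative immunocytochemistry).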
On the technique in general: ELISA stands for enzyme-linked immunosorbent assay.

In the case of `CCOc1nc(N)nc2c1ncn2[C@@H]1O[C@@H]2COP(=O)(OC(C)C)O[C@H]2[C@@]1(C)F` (some centres unmarked) [PSI-938], in series [1], the IC50 was more than 200 µM. Besides, the CC50 at 5 days in series [2] is more than 100 µM. On the same counts, the results for `C[C@@]1(O)[C@H](O)[C@@H](CO)O[C@H]1n1ccc(N)nc1=O` [2′CMeC, 2′-C-methyl (2′CMe) cytidine] are more than 200 µM and 50 ± 25 µM.

For the compound `CC(C)OC(=O)[C@H](C)N[P@](=O)(OC[C@H]1O[C@@](C#N)(c2ccc3c(N)ncnn23)[C@](C)(O)[C@@H]1OC(=O)C(C)C)Oc1ccccc1` [GS-6620], in series [1], the IC50 was more than 200 µM. In addition, the CC50 in series [2] came out at 31 ± 5 µM. On to `C[C@@]1(F)[C@H](O)[C@@H](CO)O[C@H]1n1ccc(N)nc1=O` [PSI-6130], for which the IC50 in series [1] was more than 200 µM. Besides, the CC50 at 5 days in series [2] amounted to 70 ± 14 µM. For `COc1nc(N)nc2c1ncn2[C@@H]1O[C@H](COP(=O)(N[C@@H](C)C(=O)OCC(C)(C)C)Oc2cccc3ccccc23)[C@@H](O)[C@@]1(C)O` (some centres unmarked) [BMS-986094], in series [2], the CC50 stood at 0.68 ± 0.1 µM. Regarding `C[C@@]1(O)[C@H](O)[C@@H](COP(=O)(O)OP(=O)(O)OP(=O)(O)O)O[C@H]1n1cnc2c(=O)[nH]c(N)nc21` [2′CMeGTP], the IC50 in series [1] was more than 200 µM. `[N-]=[N+]=N[C@]1(CO)O[C@@H](n2ccc(N)nc2=O)[C@H](O)[C@@H]1O` [4′-AzidoC, 4′-azido cytidine]: the IC50 in series [1] was more than 200 µM. Besides, the CC50 at 5 days in series [2] amounted to 11 ± 3 µM.

`CC(C)OC(=O)[C@H](C)N[P@](=O)(OC[C@H]1O[C@@H](n2ccc(=O)[nH]c2=O)[C@](C)(F)[C@@H]1O)Oc1ccccc1` [Sofosbuvir]: the IC50 in series [1] is more than 200 µM. Besides, the CC50 at 5 days in series [2] was more than 100 µM.
